Measured values as given in ChEMBL document CHEMBL3616412, “Re-engineering nalidixic acid's chemical scaffold: A step towards the development of novel anti-tubercular and anti-bacterial leads for resistant pathogens” (2015).
≈ marks a conversion by molar mass, not a printed value.

Experiments:
Staphylococcus aureus [1] = assay: Antibacterial activity against Staphylococcus aureus at 10 ug/disk after 24 hrs by agar plate disk diffusion method; assay type: functional; settings: read-out: DIZ
Salmonella paratyphi [2] = assay: Antibacterial activity against Salmonella paratyphi after 24 hrs by agar dilution method; assay type: functional, Salmonella enterica subsp. enterica serovar Paratyphi A; settings: Salmonella enterica
Escherichia coli [3] = assay: Antibacterial activity against Escherichia coli after 5 days by microdilution method; assay type: functional; settings: 120 h
Escherichia coli [4] = assay: Antibacterial activity against Escherichia coli after 24 hrs by agar dilution method; assay type: functional
Salmonella paratyphi [5] = assay: Antibacterial activity against Salmonella paratyphi after 5 days by microdilution method; assay type: functional, Salmonella enterica subsp. enterica serovar Paratyphi A; settings: Salmonella enterica, 120 h
Pseudomonas aeruginosa [6] = assay: Antibacterial activity against Pseudomonas aeruginosa after 5 days by microdilution method; assay type: functional; settings: 120 h
Escherichia coli [7] = assay: Antibacterial activity against Escherichia coli at 10 ug/disk after 24 hrs by agar plate disk diffusion method; assay type: functional; settings: read-out: DIZ
Salmonella typhi [8] = assay: Antibacterial activity against Salmonella typhi at 10 ug/disk after 24 hrs by agar plate disk diffusion method; assay type: functional, Salmonella enterica subsp. enterica serovar Typhi; settings: Salmonella enterica, read-out: DIZ
Salmonella typhi [9] = assay: Antibacterial activity against Salmonella typhi after 5 days by microdilution method; assay type: functional, Salmonella enterica subsp. enterica serovar Typhi; settings: Salmonella enterica, 120 h
Proteus vulgaris [10] = assay: Antibacterial activity against Proteus vulgaris at 10 ug/disk after 24 hrs by agar plate disk diffusion method; assay type: functional; settings: read-out: DIZ
Pseudomonas aeruginosa [11] = assay: Antibacterial activity against Pseudomonas aeruginosa after 24 hrs by agar dilution method; assay type: functional
Staphylococcus aureus [12] = assay: Antibacterial activity against Staphylococcus aureus after 5 days by microdilution method; assay type: functional; settings: 120 h
Proteus vulgaris [13] = assay: Antibacterial activity against Proteus vulgaris after 5 days by microdilution method; assay type: functional; settings: 120 h
Pseudomonas aeruginosa [14] = assay: Antibacterial activity against Pseudomonas aeruginosa at 10 ug/disk after 24 hrs by agar plate disk diffusion method; assay type: functional; settings: read-out: DIZ
Salmonella typhi [15] = assay: Antibacterial activity against Salmonella typhi after 24 hrs by agar dilution method; assay type: functional, Salmonella enterica subsp. enterica serovar Typhi; settings: Salmonella enterica
Proteus vulgaris [16] = assay: Antibacterial activity against Proteus vulgaris after 24 hrs by agar dilution method; assay type: functional
Salmonella paratyphi [17] = assay: Antibacterial activity against Salmonella paratyphi at 10 ug/disk after 24 hrs by agar plate disk diffusion method; assay type: functional, Salmonella enterica subsp. enterica serovar Paratyphi A; settings: Salmonella enterica, read-out: DIZ
[18] = system: Mycobacterium tuberculosis; assay: Antitubercular activity against Mycobacterium tuberculosis H37Rv ATCC 27294 after 5 days by micro alamar blue assay; assay type: functional
Staphylococcus aureus [19] = assay: Antibacterial activity against Staphylococcus aureus after 24 hrs by agar dilution method; assay type: functional

Row | Compound | zone of inhibition at 10 µg/disc (Staphylococcus aureus [1]) [mm] | MIC (Salmonella paratyphi [2]) [µg/mL] | MIC (Escherichia coli [3]) [µg/mL] | MIC (Escherichia coli [4]) [µg/mL] | MIC (Salmonella paratyphi [5]) [µg/mL] | MIC (Pseudomonas aeruginosa [6]) [µg/mL] | zone of inhibition at 10 µg/disc (Escherichia coli [7]) [mm] | zone of inhibition at 10 µg/disc (Salmonella typhi [8]) [mm] | MIC (Salmonella typhi [9]) [µg/mL] | zone of inhibition at 10 µg/disc (Proteus vulgaris [10]) [mm] | MIC (Pseudomonas aeruginosa [11]) [µg/mL] | MIC (Staphylococcus aureus [12]) [µg/mL] | MIC (Proteus vulgaris [13]) [µg/mL] | zone of inhibition at 10 µg/disc (Pseudomonas aeruginosa [14]) [mm] | MIC (Salmonella typhi [15]) [µg/mL] | MIC (Proteus vulgaris [16]) [µg/mL] | zone of inhibition at 10 µg/disc (Salmonella paratyphi [17]) [mm] | inhibition (INH) [18] [%] | MIC (Staphylococcus aureus [19]) [µg/mL]
1 | CCn1cc(C(=O)NNC(=S)/N=c2\[nH]c3ccccc3[nH]c2=O)c(=O)c2ccc(C)nc21 | 20 | 2 (≈ 4.45 µM) | 2 (≈ 4.45 µM) | 2 (≈ 4.45 µM) | 2 (≈ 4.45 µM) | > 4 | 19 | 22 | 2 (≈ 4.45 µM) | 18 | > 4 | 1 (≈ 2.22 µM) | 2 (≈ 4.45 µM) | 19 | 2 (≈ 4.45 µM) | 2 (≈ 4.45 µM) | 18 | 93 | 1 (≈ 2.22 µM)
2 | CCn1cc(-c2n[nH]c(=S)n2-c2nc3ccccc3[nH]c2=O)c(=O)c2ccc(C)nc21 | 30 | 1 (≈ 2.32 µM) | 0.06 (≈ 0.139 µM) | 0.06 (≈ 0.139 µM) | 1 (≈ 2.32 µM) | 1 (≈ 2.32 µM) | 28 | 22 | 1 (≈ 2.32 µM) | 30 | 1 (≈ 2.32 µM) | 0.06 (≈ 0.139 µM) | 0.5 (≈ 1.16 µM) | 29 | 1 (≈ 2.32 µM) | 0.5 (≈ 1.16 µM) | 23 | 77 | 0.06 (≈ 0.139 µM)
3 | CCn1cc(-c2nn(-c3nc4ccccc4[nH]c3=O)c(=S)o2)c(=O)c2ccc(C)nc21 | 32 | 1 (≈ 2.31 µM) | 0.5 (≈ 1.16 µM) | 0.5 (≈ 1.16 µM) | 1 (≈ 2.31 µM) | 1 (≈ 2.31 µM) | 25 | 23 | 1 (≈ 2.31 µM) | 26 | 1 (≈ 2.31 µM) | 0.06 (≈ 0.139 µM) | 1 (≈ 2.31 µM) | 23 | 1 (≈ 2.31 µM) | 1 (≈ 2.31 µM) | 22 | 75 | 0.06 (≈ 0.139 µM)
4 | CC1(C)S[C@@H]2[C@H](NC(=O)[C@H](N)c3ccc(O)cc3)C(=O)N2[C@H]1C(=O)O [AMOXICILLIN] | 32 | 2 (≈ 5.47 µM) | 0.25 (≈ 0.684 µM) | 0.25 (≈ 0.684 µM) | 2 (≈ 5.47 µM) | 2 (≈ 5.47 µM) | 25 | 21 | 0.5 (≈ 1.37 µM) | 24 | 2 (≈ 5.47 µM) | 0.5 (≈ 1.37 µM) | 1 (≈ 2.74 µM) | 21 | 0.5 (≈ 1.37 µM) | 1 (≈ 2.74 µM) | 22 |  | 0.5 (≈ 1.37 µM)
5 | NNC(=O)c1ccncc1 [ISONIAZID] |  |  |  |  |  |  |  |  |  |  |  |  |  |  |  |  |  | 100 | 
6 | CO[C@H]1/C=C/O[C@@]2(C)Oc3c(C)c(O)c4c(O)c(c(/C=N/N5CCN(C)CC5)c(O)c4c3C2=O)NC(=O)/C(C)=C\C=C\[C@H](C)[C@H](O)[C@@H](C)[C@@H](O)[C@@H](C)[C@H](OC(C)=O)[C@@H]1C [RIFAMPIN] |  |  |  |  |  |  |  |  |  |  |  |  |  |  |  |  |  | 98 | 
7 | CCn1cc(C(=O)NNC(N)=S)c(=O)c2ccc(C)nc21 | 28 | 0.5 (≈ 1.64 µM) | 0.12 (≈ 0.393 µM) | 0.12 (≈ 0.393 µM) | 0.5 (≈ 1.64 µM) | 0.25 (≈ 0.819 µM) | 29 | 23 | 0.5 (≈ 1.64 µM) | 30 | 0.25 (≈ 0.819 µM) | 0.12 (≈ 0.393 µM) | 0.12 (≈ 0.393 µM) | 26 | 0.5 (≈ 1.64 µM) | 0.12 (≈ 0.393 µM) | 23 | 84 | 0.12 (≈ 0.393 µM)
8 | CCn1cc(C(=O)O)c(=O)c2ccc(C)nc21 [NALIDIXIC ACID] | 27 | 1 (≈ 4.31 µM) | 0.25 (≈ 1.08 µM) | 0.25 (≈ 1.08 µM) | 1 (≈ 4.31 µM) | 1 (≈ 4.31 µM) | 26 | 25 | 1 (≈ 4.31 µM) | 25 | 1 (≈ 4.31 µM) | 0.12 (≈ 0.517 µM) | 0.25 (≈ 1.08 µM) | 22 | 1 (≈ 4.31 µM) | 0.25 (≈ 1.08 µM) | 24 | 63 | 0.12 (≈ 0.517 µM)
9 | CCn1cc(C(=O)N/N=c2\[nH]c3ccccc3[nH]c2=O)c(=O)c2ccc(C)nc21 | 21 | > 4 | 2 (≈ 5.12 µM) | 2 (≈ 5.12 µM) | > 4 | > 4 | 22 | 14 | > 4 | 20 | > 4 | 1 (≈ 2.56 µM) | 2 (≈ 5.12 µM) | 17 | > 4 | 2 (≈ 5.12 µM) | 15 | 91 | 1 (≈ 2.56 µM)
10 | O=C(O)c1cn(C2CC2)c2cc(N3CCNCC3)c(F)cc2c1=O [CIPROFLOXACIN] | 30 | 0.25 (≈ 0.754 µM) |  |  | 0.25 (≈ 0.754 µM) |  | 28 | 26 | 0.12 (≈ 0.362 µM) | 33 |  | 0.12 (≈ 0.362 µM) | 0.25 (≈ 0.754 µM) | 23 | 0.12 (≈ 0.362 µM) | 0.25 (≈ 0.754 µM) | 25 |  | 0.12 (≈ 0.362 µM)
11 | CCn1cc(C(=O)NN)c(=O)c2ccc(C)nc21 | 28 | 0.5 (≈ 2.03 µM) | 0.06 (≈ 0.244 µM) | 0.06 (≈ 0.244 µM) | 0.5 (≈ 2.03 µM) | 0.25 (≈ 1.02 µM) | 39 | 28 | 0.5 (≈ 2.03 µM) | 34 | 0.25 (≈ 1.02 µM) | 0.12 (≈ 0.487 µM) | 0.06 (≈ 0.244 µM) | 39 | 0.5 (≈ 2.03 µM) | 0.06 (≈ 0.244 µM) | 20 | 80 | 0.12 (≈ 0.487 µM)
12 | CCOC(=O)c1cn(CC)c2nc(C)ccc2c1=O | 24 | 1 (≈ 3.84 µM) | 0.5 (≈ 1.92 µM) | 0.5 (≈ 1.92 µM) | 1 (≈ 3.84 µM) | 2 (≈ 7.68 µM) | 22 | 21 | 1 (≈ 3.84 µM) | 23 | 2 (≈ 7.68 µM) | 0.25 (≈ 0.96 µM) | 0.5 (≈ 1.92 µM) | 17 | 1 (≈ 3.84 µM) | 0.5 (≈ 1.92 µM) | 19 | 78 | 0.25 (≈ 0.96 µM)
